For one data set, the target named is T1, hLBAT (Homo sapiens, UniProt Q14973).
T1 construct: expressed in transfected cells; kept under Geneticin selection
T1 sequence (Q14973 1-349): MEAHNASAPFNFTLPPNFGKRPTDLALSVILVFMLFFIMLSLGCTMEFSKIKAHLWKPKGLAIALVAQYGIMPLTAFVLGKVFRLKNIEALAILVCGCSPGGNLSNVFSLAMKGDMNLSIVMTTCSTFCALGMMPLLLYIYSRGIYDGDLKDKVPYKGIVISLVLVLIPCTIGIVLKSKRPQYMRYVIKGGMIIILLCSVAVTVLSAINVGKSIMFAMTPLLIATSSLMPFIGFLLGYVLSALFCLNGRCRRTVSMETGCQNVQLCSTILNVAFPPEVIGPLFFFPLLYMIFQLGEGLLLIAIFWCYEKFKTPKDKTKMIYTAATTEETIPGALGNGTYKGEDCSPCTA
Nature of the data set: LBAT (h/m) assay, 3H-taurocholic acid uptake in human LBAT-overexpressing cells. The conditions noted are these: 0.3 μM 3H-taurocholic acid and 7.5 μM cold taurocholic acid, 20 minutes. It is filed as cell-based. As to the method:
20,000 cells (Human or Mouse LBAT-overexpressing cells) were seeded in 96-wells plate (Corning CLS3809) in 100 μL MEM-alpha medium (Gibco 12571-063) supplemented with 10% FBS (Gibco 10438026) containing Geneticin (Gibco 10131-027) (1 mg/mL) and incubated at 37° C. in 5% CO2 for 24 hours. After incubation, media was decanted from the wells and cells were washed two times with 300 μL of basal MEM-alpha medium (FBS-free). After decanting basal MEM-alpha medium each time, plates were tapped against paper towel to ensure maximum removal of residual media. For human LBAT, incubation mix was prepared by adding test inhibitor dilutions (3-fold serial dilution in DMSO (Sigma D2650), 10 points) in MEM-alpha (without FBS) containing 0.3 μM 3H-taurocholic acid (ARC ART-1368) and 7.5 μM cold taurocholic acid (Sigma T4009) (maintaining 0.2% final DMSO concentration). For mouse LBAT, incubation mix was prepared by adding test inhibitor dilutions (3-fold serial dilution in DMSO, 10 points) in MEM-alpha (without FBS) containing 0.3 μM 3H-taurocholic acid and 25 μM cold taurocholic acid maintaining 0.2% final DMSO concentration). 50 μL of incubation mix containing test inhibitors was then added to the wells (in duplicate) and the plates were incubated for 20 minutes in a CO2 incubator at 37° C. After incubation, the reaction was stopped by keeping the plates on ice water mix for 2-3 minutes and then the incubation mix was aspirated completely from the wells. The wells were washed two times with 250 μL of chilled unlabelled 1 mM taurocholic acid dissolved in HEPES (Gibco 15630080)-buffered (10 mM) HBSS (Gibco 14175079) (pH 7.4). The plates were tapped against a paper towel after every wash to ensure maximum removal of blocking buffer.
100 μL of MicroScint-20 (PerkinElmer 6013621) was added to the wells and kept overnight at room temperature before reading the plates in TopCount NXT™ Microplate Scintillation and Luminescence Counter from PerkinElmer under 3H Test protocol (set at 120 seconds reading time per well, with normal plate orientation).
(§1) All test compounds were provided in powder form at room temperature. 10 mM DMSO stocks of the test compounds were prepared, aliquoted and stored at −20° C. From the 10 mM DMSO stock of the compounds, a 3-fold serial dilution in DMSO was prepared to get a total of 10 dilutions of the test compounds. 0.5 μL of this dilution in DMSO was added to 250 μL of FBS-free basal media containing 3H-taurocholic acid and cold taurocholic acid to prepare the incubation mixture.

A further data set deals with T2, hIBAT (Homo sapiens, UniProt Q12908).
T2 construct: expressed in transfected cells; kept under Puromycin selection
T2 sequence (Q12908 1-348): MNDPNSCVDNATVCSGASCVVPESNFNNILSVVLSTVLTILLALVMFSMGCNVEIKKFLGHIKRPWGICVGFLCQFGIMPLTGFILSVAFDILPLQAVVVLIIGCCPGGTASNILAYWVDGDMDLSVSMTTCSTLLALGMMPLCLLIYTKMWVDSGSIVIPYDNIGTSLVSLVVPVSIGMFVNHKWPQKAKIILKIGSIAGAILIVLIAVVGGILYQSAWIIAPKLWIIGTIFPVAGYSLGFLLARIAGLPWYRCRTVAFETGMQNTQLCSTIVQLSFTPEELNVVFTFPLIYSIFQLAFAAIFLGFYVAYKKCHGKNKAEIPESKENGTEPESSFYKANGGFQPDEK
Nature of the data set: IBAT (h/m) assay, 3H-taurocholic acid uptake in human IBAT-overexpressing cells. It is filed as cell-based. Conditions: 0.25 μM 3H-taurocholic acid and 5 μM cold taurocholic acid, 20 minutes. As to the method: 10,000 cells (Human or Mouse IBAT-overexpressing cells) were seeded in 96-wells plate (Corning CLS3809) in 200 μL MEM-alpha medium (Gibco 12571-063) supplemented with 10% FBS (Gibco 10438026) containing Puromycin (Gibco A1113803) (10 μg/mL) and incubated at 37° C. in 5% CO2 for 48 hours. After incubation, media was decanted from the wells and cells were washed two times with 300 μL of basal MEM-alpha medium (FBS-free). After decanting basal MEM-alpha medium each time, plates were tapped against paper towel to ensure maximum removal of residual media. Test inhibitor dilutions (highest test concentration being 10 μM, 3-fold serial dilution, 10 points) prepared in DMSO (Sigma D2650) were added in incubation mix (maintaining 0.2% final DMSO concentration) containing 0.25 μM 3H-taurocholic acid (ARC ART-1368) and 5 μM of cold taurocholic acid (Sigma T4009). 50 μL of incubation mix containing test inhibitors was then added to the wells (in duplicate) and the plates were incubated for 20 minutes in a CO2 incubator at 37° C. After incubation, the reaction was stopped by keeping the plates on ice water mix for 2-3 minutes and then the incubation mix was aspirated completely from the wells. The wells were washed two times with 250 μL of chilled unlabelled 1 mM taurocholic acid dissolved in HEPES (Gibco 15630080)-buffered (10 mM) HBSS (Gibco 14175079) (pH 7.4). The plates were tapped against a paper towel after every wash to ensure maximum removal of blocking buffer.
100 μL of MicroScint-20 (PerkinElmer 6013621) was added to the wells and kept overnight at room temperature before reading the plates in TopCount NXT™ Microplate Scintillation and Luminescence Counter from PerkinElmer under 3H Test protocol (set at 120 seconds reading time per well).
as §1

Data set [1] is described as follows: Bidirectional permeability assay (Caco-2 cells). Conditions: human, Caco-2.
Procedure: (§2) Caco-2 cells (Evotec) were seeded at a density of 70,000 cells/well in Millicell® 24-well cell culture insert plates and maintained in an incubator (37° C., 5% CO2, 95% RH) for 21 days with media change on alternate days.
(§3) Stock solutions (10 mM) of the test compounds, atenolol (low permeability marker), propranolol (high permeability marker) and digoxin (substrate for P-gp transport pathway) were prepared in dimethylsulfoxide (DMSO). An intermediate stock solution (1 mM) was prepared by diluting 10 μL of 10 mM master stock solution with 90 μL of neat DMSO. A working stock solution (10 μM) was prepared by diluting 50 μL of 1 mM with 4950 μL of FaSSIF buffer. Post addition of compounds to the FaSSIF, samples were subjected to sonication for 2 hours, and centrifuged at 4000 RPM for 30 minutes at 37° C. The 4 mL of resultant supernatant was directly used in the assay. The final DMSO concentration in the transport experiments was 1%.
(§4) On the day of assay, Caco-2 monolayers were washed twice with transport buffer (HBSS, pH 7.4) and pre-incubated for 30 min (37° C., 5% CO2, 95% RH) in an incubator. The electrical resistance of the monolayers was measured with a Millicell®—ERS system. Monolayers with trans-epithelial electrical resistance (TEER) values greater than 350 ohm·cm^2 were selected for the assay.
(§5) The assay was conducted in absorptive direction (A2B) and secretory (B2A) directions. Transport experiments were initiated by addition of transport assay buffer (FaSSIF buffer prepared in HBSS) consisting of compounds to the donor compartment (apical chamber A-B; basolateral chamber B-A) in duplicate (n=2) wells. Drug free HBSS buffer (pH 7.4) containing 1% bovine serum albumin (BSA) was introduced to the receiver (A-B-basolateral; B-A-Apical) compartments. The volumes of apical and basolateral compartments were 0.4 and 0.8 mL, respectively. After adding dosing solution, plates were incubated in an incubator for 120 minutes at 37° C. After 120 minutes, donor and receiver samples were collected and matrix matched (1:1, 30 μL study sample+30 μL blank buffer) with the opposite buffer. Dosing samples matrix matched (1:1, 30 μL study sample+30 μL blank buffer) with the opposite buffer. Samples were processed by adding acetonitrile containing internal standard (60 μL study sample+200 μL acetonitrile containing internal standard—Tolbutamide, 500 ng/mL). Samples were vortexed and centrifuged at 4000 rpm for 10 minutes. The obtained supernatant (100 μL) was diluted with 100 μL of water and transferred to fresh 96 well plates. The concentration of compounds in the samples was analyzed by liquid chromatography tandem mass spectrometry (LC-MS/MS) method using discovery grade bio-analytical method, as applicable.
(§6) The mean apparent permeability (Papp, ×10^−6 cm/sec) of the test compounds, atenolol, propranolol and digoxin were calculated as follows:
Data set [2] relates to Caco-2 cells. In words: Bidirectional permeability assay (Caco-2 cells). The conditions noted are these: FaSSIF buffer, 120 minutes at 37° C.; for Permeability (Caco-2) Papp A2B: absorptive direction (A2B); for Permeability (Caco-2) Papp B2A: secretory direction (B2A). (In general: Caco-2 cells form a polarised layer with tight junctions and transporters.)
Procedure: as §2, §3, §4, §5, §6
In data set [3] the test system is Caco-2 cells.
Procedure: as §2, §3, §4, §5, §6
Details of data set [4]: species or system mice (CD1). Conditions: mouse, in vivo. As to the method: Male mice (C57BL/6 or CD1) or Wistar rats of 8-9 weeks old were used. For each test compound, two groups of 3 animals each were used. One group was administered a single intravenous dose of 1 mg/kg (vehicle 100% DMSO) through the tail vein and the other group was administered a single oral dose of 10 mg/kg through gavage needle. The group that was administered an oral dose was fasted overnight. Blood samples were collected after 0.083, 0.25, 0.5, 1, 2, 4, 6, 8 and 24 hours following intravenous administration, and after 0.25, 0.5, 1, 2, 4, 6, 8 and 24 hours following oral administration. Blood samples were taken from saphenous vein. 0.2% EDTA was used as the anticoagulant. The samples were analyzed by a discovery grade bioanalytical method developed for the estimation of test compound in plasma, using an LC-MS/MS system.

As usually defined, the IC50 is the point on the concentration scale where inhibition reaches its midpoint. A word on the Papp A→B: it is how fast a substance crosses the layer from the apical side. Higher therefore signals fast passage. Usually Papp B→A stands for how fast a substance crosses the layer from the basolateral side.

Like-named read-outs stand apart in the source and are kept apart here.

At hLBAT, `CCCCC1(CC)CN(c2ccccc2)c2cc(N(C)C)c(O/C=C(\F)C(=O)O)cc2S(=O)(=O)N1` (centres unmarked) [Example 2, (Z)-3-((3-butyl-7-(dimethylamino)-3-ethyl-1,1-dioxido-5-phenyl-2,3,4,5-tetrahydro-1,2,5-benzothiadiazepin-8-yl)oxy)-2-fluoroacrylic acid] gave an IC50 of 124 nM. The IC50 against hIBAT stood at 13 nM. Also, in data set [1], the Papp A→B at 120 min, 10 µM came to 1.4 ×10⁻⁶ cm/s and the Papp B→A at 120 min, 10 µM worked out at 2.4 ×10⁻⁶ cm/s.
For “(S)—(Z)-3-((3-butyl-3-ethyl-5-(4-fluorophenyl)-7-(methylthio)-1,1-dioxido-2,3,4,5-tetrahydro-1,5-benzothiazepin-8-yl)oxy)-2-fluoroacrylic acid and (R)—(Z)-3-((3-butyl-3-ethyl-5-(4-fluorophenyl)-7-(methylthio)-1,1-dioxido-2,3,4,5-tetrahydro-1,5-benzothiazepin-8-yl)oxy)-2-fluoroacrylic acid [Example 7]”, the IC50 against hLBAT came out at 14 nM. In addition, the IC50 at hIBAT worked out at 5 nM. Moreover, in the data set with Caco-2 cells [2], the “Permeability (Caco-2) Papp A2B” value was 5.7e-06 cm/s and the “Permeability (Caco-2) Papp B2A” value was determined as 4.1e-06 cm/s.
Taken in the same sequence, the figures for “(S)—(Z)-3-((3-butyl-7-(dimethylamino)-3-ethyl-1,1-dioxido-5-phenyl-2,3,4,5-tetrahydro-1,2,5-benzothiadiazepin-8-yl)oxy)-2-fluoroacrylic acid and (R)—(Z)-3-((3-butyl-7-(dimethylamino)-3-ethyl-1,1-dioxido-5-phenyl-2,3,4,5-tetrahydro-1,2,5-benzothiadiazepin-8-yl)oxy)-2-fluoroacrylic acid [Example 3]” were 427 nM, 8 nM, 1.8e-06 cm/s and 2.2e-06 cm/s.
As for “(S)-(E)-3-((3-butyl-3-ethyl-5-(4-fluorophenyl)-7-(methylthio)-1,1-dioxido-2,3,4,5-tetrahydro-1,5-benzothiazepin-8-yl)oxy)acrylic acid and (R)-(E)-3-((3-butyl-3-ethyl-5-(4-fluorophenyl)-7-(methylthio)-1,1-dioxido-2,3,4,5 tetrahydro-1,5-benzothiazepin-8-yl)oxy)acrylic acid [Example 10]”, in the data set with Caco-2 cells [3], the “Permeability (Caco-2) Papp A2B” value turned out to be 1e-05 cm/s and the “Permeability (Caco-2) Papp B2A” value is 5.4e-06 cm/s. The same molecule gave an IC50 on hLBAT of 113 nM. Moreover, the IC50 at hIBAT came out at 4 nM. Besides, the “Bioavailability (%)” value in data set [4] is recorded as 41 (CD1) %.
Consider `CCCCC1(CCCC)CN(c2ccc(F)cc2)c2cc(SC)c(O/C=C(\F)C(=O)O)cc2S(=O)(=O)C1` [Example 1, (Z)-3-((3,3-dibutyl-5-(4-fluorophenyl)-7-(methylthio)-1,1-dioxido-2,3,4,5-tetrahydro-1,5-benzothiazepin-8-yl)oxy)-2-fluoroacrylic acid], for which the concentration for half-maximal inhibition (IC50) on hLBAT amounted to 49 nM. The molecule further gave an IC50 at hIBAT of 21 nM. Further, in data set [1], the Papp A→B at 120 min, 10 µM stood at 0.9 ×10⁻⁶ cm/s and the Papp B→A at 120 min, 10 µM was determined as 0.9 ×10⁻⁶ cm/s.
As for `CCCC1(CC)CN(c2ccccc2)c2cc(SC)c(O/C=C(\F)C(=O)O)cc2S(=O)(=O)C1` (centres unmarked) [Example 12, (Z)-3-((3-ethyl-7-(methylthio)-1,1-dioxido-5-phenyl-3-propyl-2,3,4,5-tetrahydrobenzo-1,5-thiazepin-8-yl)oxy)-2-fluoroacrylic acid], the values for the IC50 against hLBAT and against hIBAT were 12 nM and 156 nM, respectively. Besides, the Papp A→B at 120 min, 10 µM in data set [1] turned out to be 3.8 ×10⁻⁶ cm/s. Further, the Papp B→A at 120 min, 10 µM in data set [1] turned out to be 4.1 ×10⁻⁶ cm/s.
In the same order, the values of `CCCCC1(CC)CN(c2ccc(F)cc2)c2cc(SC)c(O/C=C(\F)C(=O)O)cc2S(=O)(=O)C1` (centres unmarked) [Example 5, (Z)-3-((3-butyl-3-ethyl-5-(4-fluorophenyl)-7-(methylthio)-1,1-dioxido-2,3,4,5-tetrahydro-1,5-benzothiazepin-8-yl)oxy)-2-fluoroacrylic acid] are 14 nM, 5 nM, 2.3 ×10⁻⁶ cm/s and 2 ×10⁻⁶ cm/s.
On to `CCCC[C@@]1(CC)CN(c2ccccc2)c2cc(N(C)C)c(O/C=C/C(=O)O)cc2S(=O)(=O)N1.CCCC[C@]1(CC)CN(c2ccccc2)c2cc(N(C)C)c(O/C=C/C(=O)O)cc2S(=O)(=O)N1` (mixture of isomers) [Example 14, (S)-(E)-3-((3-butyl-7-(dimethylamino)-3-ethyl-1,1-dioxido-5-phenyl-2,3,4,5-tetrahydro-1,2,5-benzothiadiazepin-8-yl)oxy)acrylic acid and (R)-(E)-3-((3-butyl-7-(dimethylamino)-3-ethyl-1,1-dioxido-5-phenyl-2,3,4,5-tetrahydro-1,2,5-benzothiadiazepin-8-yl)oxy)acrylic acid], for which, at hIBAT, it took 6 nM to reach half-maximal inhibition (IC50). For the same molecule, in the data set with Caco-2 cells [2], the “Permeability (Caco-2) Papp A2B” value is 1.1e-05 cm/s and the “Permeability (Caco-2) Papp B2A” value came to 2e-05 cm/s.
